# Test results taken from EP0043274A2, “Antithrombotic treatment” (priority 1980, dated 1982).
# Where “and” joins values, the source holds several entries; their conditions need not be identical. Identical values can stand only once. Like-named read-outs stand apart in the source and are kept apart here.
# Columns and labels:
# [1] = test system: human plasma; format: biochemical; settings: for PTT(seconds) Exp. 2 A: Active Agent 0.5/ml, test sequences A and B, control 50.5 (A), 44.5 (B)
# [2] = test system: human plasma; format: biochemical
# [3] = test system: thrombus formation in the jugular vein; test: I 125 fibrinogen technique, damaged jugular vein (venous thrombosis), continuous infusion; format: in vivo, rabbits; settings: for thrombus formation in the jugular vein (conclusion in words): continuous infusion for five hours
# Procedure: The anti venous thrombotic effect of sodium bisulfite is evaluated in rabbits by using I ^125 fibrinogen technique as described in an article in "Archives of Surgery" Vol. 104, pg. 152 (1972).
# The rabbit was continuously infused with aqueous sodium bisulfite solution at the rate of […]. (5.154 gram per hour) (animal body weight 2.3 kg) for a time of five hours. After 5 hours, the animal was sacrificed and the radioactive fibrinogen accumulated in the damaged jugular vein was determined. The radioactivity on the contra-lateral (undamaged) jugular vein was also determined to serve as a control. Concurrently, another rabbit had experienced the same procedure but received only a standard sodium chloride solution as a control. The rabbit from the normal saline solution has seven times as much radioactivity as his counterpart infused with sodium bisulfite.
# Two jugular veins on a normal, healthy rabbit are exposed and one of the veins is systematically damaged by clamping in two longitudinally spaced places. The rabbit is then continuously infused with aqueous sodium formaldehyde bisulfite at the rate of […] (5.154 gram per hour) (animal body weight 2.3 kg). The rabbit is then injected with fibrinogen labeled with I^125. After 5 hours, the damaged jugular vein is evaluated for radioacive count with a Geiger counter.
# This iodine 125 evaluation technique is described by Kakkar in Archieves of Surgery, Vol. 104, pg. 152 (1972) and by Kelton, J.G. et al, Journal of Clinical Investigation, Vol. 62, pgs. 892-895, (1978). […] Other rabbits, similarly evaluated, died, apparently because of overdose by the infustion technique.
# [4] = 0.5 mg/ml, two different days, control 42.6 / 42.10
# [5] = coded agents 0.5mg/ml, […], control 12.92
# [6] = amine bisulfites, control plasma 12.8 / 13.1
# [7] = 0.5 mg/ml, two different days, control 13.40
compound,measurement,setting,value
"CCN(CC)C(=S)S [SO4, Sodium diethyl dithiocarbamate, reference compound]",PTT,[1]; [4],48.1 s
same,PTT,"[1]; coded agents 0.5mg/ml, mean values of 5 replications, control 43.38",49.60 s
same,PT,[2],13.6 s
same,PT,[2]; [5],14.02 s
O=S([O-])S(=O)(=O)[O-].[Na+].[Na+] [Sodium Metabisulfite],PTT(seconds) Exp. 1 A,[1],76.9 s
same,PTT,[1]; [4],77.75 s
same,PT,[2],19.56 s
same,PT(seconds) Exp. 1 A,[2],18.5 s
same,PT(seconds) Exp. 2 A,[2],21.9 s
CC(C)(C)N [TERT-BUTYL AMINE],PTT REPLICATIONS 2,[1],68.9
same,PTT REPLICATIONS 1,"[1]; amine bisulfites, control plasma 37.5 / 38.2",68.2
same,PTT REPLICATIONS 3,"[1]; amine bisulfites, control plasma 37.8 / 39.2",69.0
same,PT REPLICATIONS 1,[2]; [6],21.7
same,PT REPLICATIONS 2,[2]; [6],21.8
same,PT REPLICATIONS 3,"[2]; amine bisulfites, control plasma 13.1 / 13.0",21.8
"CCN(CC)CC.Cl [TRIETHYLAMINE HYDROCHLORIDE, reference compound]",PTT 1,[1],32.0
same,PTT 2,[1],31.5
same,PTT 3,[1],34.5
same,PT 1,[2],12.8
same,PT 2,[2],12.7
same,PT 3,[2],13.5
"CCCC[N+](CCCC)(CCCC)CCCC.[Br-] [Tetrabutyl Ammonium Bromide, reference compound]",PTT (effect in words),[1],little or no effect
same,PTT sec,[1],38.3 s
same,PT (effect in words),[2],little or no effect
same,PT sec.,[2],12.4 s
"C[N+](C)(C)C [Tetramethyl Ammonium Bromide, reference compound]",PTT sec,"[1]; 0.5 mg/ml, human plasma, control 38.1",38.5 s
same,PTT (effect in words),"[1]; in vitro, 0.5 mg/ml",little or no effect
same,PT sec.,[2],12.5 s
same,PT (effect in words),"[2]; in vitro, 0.5 mg/ml",little or no effect
"CC(C)=O [acetone, reference compound]",PTT (effect in words),"[1]; in vitro, 0.5 mg/ml",minimal effect
same,PT (effect in words),"[2]; in vitro, 0.5 mg/ml",minimal effect
CCCCCCCCN.O=S(O)O [n-octyl amine bisulfite],thrombus formation in the jugular vein (conclusion in words),[3],definite positive antithrombotic effect
CCCC[N+](CCCC)(CCCC)CCCC [tetrabutyl ammonium bisulfite],radioactivity (I 125 fibrinogen) in damaged jugular vein of saline control rabbit relative to treated rabbit,[3]; continuous infusion .001 mg/kg min (5.154 gram per hour) for five hours,approximately 7 times
CCCCN(CCCC)CCCC.O=S(O)O [tri-n-butyl amine bisulfite],thrombus formation in the jugular vein (conclusion in words),[3],definite positive antithrombotic effect
Ammonium Sulfite,PTT(seconds) Exp. 1 A,[1],56.5 s
same,PTT,[1]; [4],58.80 s
same,PTT(seconds) Exp. 2 A,[1],65.2 s
same,PT,[2],16.08 s
same,PT(seconds) Exp. 1 A,[2],14.7 s
same,PT(seconds) Exp. 2 A,[2],16.9 s
Na2SO4 [reference compound],PTT,[1]; [4],44.2 s
same,PT,[2]; [7],13.6 s
Na Sulfide [reference compound],PTT,[1]; [4],78.50 s
same,PT,[2]; [7],21.12 s
Na-hydrosulfite [reference compound],PTT sec,[1]; [4],45.2 (39.0) sec
same,PT,[2]; [7],14.4 s
Na-phosphite [reference compound],PT,[2]; [7],12.9 s
Sodium Sulfite,PTT(seconds) Exp. 1 A,[1],74.8 s and 66.1 s
same,PTT,[1]; [4],66.53 s
same,PTT(seconds) Exp. 2 A,[1],82.1 s and 80.7 s
same,PTT,"[1]; coded agents 0.5mg/ml, […], control 43.38",64.62 s
same,PT,[2],16.38 s
same,PT(seconds) Exp. 1 A,[2],16.8 s and 16.2 s
same,PT(seconds) Exp. 2 A,[2],17.7 s
same,PT,[2]; [5],16.14 s
"Sodium thiosulfate [SI6, reference compound]",PTT,[1],46.2 s
same,PT,[2],13.5 s
benzaldhyde [reference compound],PTT (effect in words),"[1]; in vitro, 0.5 mg/ml",minimal effect
same,PT (effect in words),"[2]; in vitro, 0.5 mg/ml",minimal effect
cyclohexane [reference compound],PTT (effect in words),"[1]; in vitro, 0.5 mg/ml",minimal effect
same,PT (effect in words),"[2]; in vitro, 0.5 mg/ml",minimal effect
